# According to US20090163515A1, “Compounds Which Bind to the Active Site of Protein Kinase Enzymes” (Biofocus Discovery Ltd., priority 2003, published 2009):
# Test system: ROK
# Experiment: ROK activity assay
# Type: biochemical
# Parameters: key: +: active; ++: more active; +++: very active
# Details: assays conducted at 1-100 μM
row,Compound,ROK activity
1,"Oc1cccc(CNc2cncc(-c3ccc4c(c3)OCO4)c2)c1 [3-[(5-Benzo[1,3]dioxol-5-yl-pyridin-3-ylamino)-methyl]-phenol]",++
2,"Brc1ccc(CNc2cncc(-c3ccncc3)c2)cc1 [[3,4′]Bipyridinyl-5-yl-(4-bromo-benzyl)-amine]",+++
3,Nc1ccc(C(=O)Nc2ccc(Nc3cnc(-c4ccncc4Cl)cn3)cc2)cc1 [4-Amino-N-{4-[5-(3-chloro-pyridin-4-yl)-pyrazin-2-ylamino]-phenyl}-benzamide],++
4,NC(=O)c1cccc(-c2cncc(NCc3ccc(Cl)cc3)c2)c1 [3-[5-(4-Chloro-benzylamino)-pyridin-3-yl]-benzamide],++
5,NC(=O)c1cccc(-c2cncc(NCc3cccc(O)c3)c2)c1 [3-[5-(3-Hydroxy-benzylamino)-pyridin-3-yl]-benzamide],+++
6,COc1ccc(CNc2cncc(-c3ccc(O)cc3)c2)cc1O [5-{[5-(4-Hydroxy-phenyl)-pyridin-3-ylamino]-methyl}-2-methoxy-phenol],++
7,Oc1cccc(CNc2cncc(-c3cccc4ncccc34)c2)c1 [3-[(5-Quinolin-5-yl-pyridin-3-ylamino)-methyl]-phenol],+++
8,Oc1ccc(-c2cncc(NCc3cccc(Cl)c3)c2)cc1 [4-[5-(3-Chloro-benzylamino)-pyridin-3-yl]-phenol],++
9,"NC(=O)c1cccc(-c2cncc(NCc3ccc4c(c3)OCO4)c2)c1 [3-{5-[(Benzo[1,3]dioxol-5-ylmethyl)-amino]-pyridin-3-yl}-benzamide]",+
10,c1ccc2sc(-c3cnc(NCCc4ccncc4)cn3)cc2c1 [(5-Benzo[b]thiophen-2-yl-pyrazin-2-yl)-(2-pyridin-4-yl-ethyl)-amine],++
11,COc1ccc(Nc2cncc(-c3cccc(C(N)=O)c3)c2)cc1 [3-[5-(4-Methoxy-phenylamino)-pyridin-3-yl]-benzamide],+
12,"Oc1cccc(CNc2cncc(-c3ccncc3)c2)c1 [3-([3,4′]Bipyridinyl-5-ylaminomethyl)-phenol]",++
13,CC(C)C(CO)Nc1cnc(-c2ccncc2)cn1 (stereo not drawn) [3-Methyl-2-(5-pyridin-4-yl-pyrazin-2-ylamino)-butan-1-ol],+
14,Oc1cccc(CNc2cncc(-c3cccc(O)c3)c2)c1 [(5-(3′-hydroxy-phenyl)-pyridin-3-yl)-(3-hydroxy-benzyl)-amine],+
15,NC(=O)c1cccc(-c2cncc(NCc3cccnc3)c2)c1 [3-{5-[(Pyridin-3-ylmethyl)-amino]-pyridin-3-yl}-benzamide],+
16,"Oc1ccc(-c2cncc(NCc3ccc4c(c3)OCO4)c2)cc1 [4-{5-[(Benzo[1,3]dioxol-5-ylmethyl)-amino]-pyridin-3-yl}-phenol]",++
17,Oc1ccc(-c2cnc(NCc3cccc(Cl)c3)cn2)cc1 [4-[5-(3-Chloro-benzylamino)-pyrazin-2-yl]-phenol],+
18,Nc1cccc(-c2cncc(NCc3cccc(O)c3)c2)c1 [3-{[5-(3-Amino-phenyl)-pyridin-3-ylamino]-methyl}-phenol],+
19,Oc1ccc(-c2cncc(NCc3cccc(O)c3)c2)cc1 [(5-(4′-hydroxy-phenyl)-pyridin-3-yl)-(3-hydroxy-benzyl)-amine],+++
20,CC(=O)Nc1ccc(-c2cncc(NCc3cccc(O)c3)c2)cc1 [N-{4-[5-(3-Hydroxy-benzylamino)-pyridin-3-yl]-phenyl}-acetamide],+
21,Oc1ccc(-c2cnc(NCc3ccccc3)cn2)cc1 [4-(5-Benzylamino-pyrazin-2-yl)-phenol],++

row,Compound,ROK activity
1,"COc1cc(-c2cnc(NCCc3ccncc3)cn2)cc(OC)c1OC [(2-Pyridin-4-yl-ethyl)-[5-(3,4,5-trimethoxy-phenyl)-pyrazin-2-yl]-amine]",++
2,"FC(F)(F)Oc1cccc(CNc2cncc(-c3ccncc3)c2)c1 [[3,4′]Bipyridinyl-5-yl-(3-trifluoromethoxy-benzyl)-amine]",++
3,COc1ccc(NC(=O)c2ccc(-c3cnc(NCCc4ccncc4)cn3)cc2)cc1 [N-(4-Methoxy-phenyl)-4-[5-(2-pyridin-4-yl-ethylamino)-pyrazin-2-yl]-benzamide],++
4,"c1cc(-c2cncc(NCC3CCCCC3)c2)ccn1 [[3,4′]Bipyridinyl-5-yl-cyclohexylmethyl-amine]",++
5,"Clc1cccc(CNc2cncc(-c3ccncc3)c2)c1 [[3,4′]Bipyridinyl-5-yl-(3-chloro-benzyl)-amine]",++
6,"NC(=O)c1cccc(-c2cncc(NCc3ccc(F)c(F)c3)c2)c1 [3-[5-(3,4-Difluoro-benzylamino)-pyridin-3-yl]-benzamide]",++
7,Oc1cccc(CNc2cncc(-c3ccc4[nH]ccc4c3)c2)c1 [3-{[5-(1H-Indol-5-yl)-pyridin-3-ylamino]-methyl}-phenol],+
8,"c1cc(-c2cnc(NCc3ccc4c(c3)OCO4)cn2)ccn1 [Benzo[1,3]dioxol-5-ylmethyl-(5-pyridin-4-yl-pyrazin-2-yl)-amine]",++
9,NC(=O)c1cccc(-c2cncc(NCc3ccoc3)c2)c1 [3-{5-[(Furan-3-ylmethyl)-amino]-pyridin-3-yl}-benzamide],+
10,"Oc1ccc(-c2cncc(NCc3ccc(F)c(F)c3)c2)cc1 [4-[5-(3,4-Difluoro-benzylamino)-pyridin-3-yl]-phenol]",++
11,Oc1cccc(CNc2cncc(-c3ccccc3)c2)c1 [3-[(5-Phenyl-pyridin-3-ylamino)-methyl]-phenol],+
12,"Clc1ccc(CNc2cncc(-c3ccncc3)c2)cc1Cl [[3,4′]Bipyridinyl-5-yl-(3,4-dichloro-benzyl)-amine]",++
13,COc1ccc(CNc2cncc(-c3cccc(C(N)=O)c3)c2)cc1 [3-[5-(4-Methoxy-benzylamino)-pyridin-3-yl]-benzamide],+
14,"O=[N+]([O-])c1cccc(Nc2cncc(-c3ccncc3)c2)c1 [[3,4′]Bipyridinyl-5-yl-(3-nitro-phenyl)-amine]",++
15,FC(F)(F)Oc1cccc(-c2cnc(NCCc3ccncc3)cn2)c1 [(2-Pyridin-4-yl-ethyl)-[5-(3-trifluoromethoxy-phenyl)-pyrazin-2-yl]-amine],++
16,"Fc1cc(CNc2cncc(-c3ccncc3)c2)ccc1Cl [[3,4′]Bipyridinyl-5-yl-(4-chloro-3-fluoro-benzyl)-amine]",+++
17,OCc1cccc(-c2cncc(NCc3cccc(O)c3)c2)c1 [3-{[5-(3-Hydroxymethyl-phenyl)-pyridin-3-ylamino]-methyl}-phenol],+
18,COc1ccc(CNc2cncc(-c3ccc(O)cc3)c2)cc1 [4-[5-(4-Methoxy-benzylamino)-pyridin-3-yl]-phenol],++
19,NC(=O)c1cccc(-c2cncc(NCc3ccc(Cl)c(F)c3)c2)c1 [3-[5-(4-Chloro-3-fluoro-benzylamino)-pyridin-3-yl]-benzamide],++
20,Fc1ccc(-c2cnc(NCCc3ccncc3)cn2)cc1Cl [[5-(3-Chloro-4-fluoro-phenyl)-pyrazin-2-yl]-(2-pyridin-4-yl-ethyl)-amine],+
21,Oc1ccc(-c2cncc(NCC3CCCCC3)c2)cc1 [4-[5-(Cyclohexylmethyl-amino)-pyridin-3-yl]-phenol],+
